Laboratory results from patent US20220298213A1, “IN VIVO ENGINEERED CEREBLON PROTEIN” (Vividion Therapeutics, Inc., priority 2018, published 2022).
Where two headings read alike, the source gives them in different places. Blank lines part the entries; values can stand above or below the molecule they belong to.

Assays:
Assay in all cases: Inhibition of iodoacetamide probe labeling of CRBN cysteines, cell lysate (Table 3A)
Type in all cases: binding
CRBN Cys287 = biological target: T1, CRBN Cys287 (Homo sapiens, UniProt Q96SW2); details: for inhibition at 500 µM / inhibition at 31.2 µM / inhibition at 125 µM / inhibition at 2 µM / inhibition at 0.49 µM: read-out: % inhibition of iodoacetamide probe labeling, Cys287; for inhibition at 7.8 µM: 7.8 micromolar
T1 construct: endogenous in cells
T1 sequence (Q96SW2 whole entry): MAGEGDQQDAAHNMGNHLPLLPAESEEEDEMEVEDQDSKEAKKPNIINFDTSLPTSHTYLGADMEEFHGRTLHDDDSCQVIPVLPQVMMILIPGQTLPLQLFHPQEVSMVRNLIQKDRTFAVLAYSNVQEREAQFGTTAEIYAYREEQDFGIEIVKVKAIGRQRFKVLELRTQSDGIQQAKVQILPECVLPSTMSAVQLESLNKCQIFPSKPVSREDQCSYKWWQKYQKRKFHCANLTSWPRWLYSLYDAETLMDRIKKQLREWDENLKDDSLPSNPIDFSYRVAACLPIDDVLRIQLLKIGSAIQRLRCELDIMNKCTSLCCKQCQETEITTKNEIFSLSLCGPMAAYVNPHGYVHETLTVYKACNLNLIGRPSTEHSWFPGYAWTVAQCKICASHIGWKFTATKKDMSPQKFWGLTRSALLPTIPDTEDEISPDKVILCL
Method: (§1) “X@Y” means that x % inhibition of iodoacetamide probe labeling was observed by treatment of cell lysate with the give compound in each row of the table for 1 h at a concentration of y micromolar. There was consistently high inhibition at C318 in addition to C287, which can be attributed to an allosteric inhibition.

CRBN Cys318 = biological target: T2, CRBN Cys318 (Homo sapiens, UniProt Q96SW2); details: for inhibition at 7.8 µM: 7.8 micromolar
T2 construct: endogenous in cells
T2 sequence (Q96SW2 whole entry): as above
Method: as §1

CRBN Cys188 = biological target: T3, CRBN Cys188 (Homo sapiens, UniProt Q96SW2); details: for inhibition at 125 µM: 125 micromolar
T3 construct: endogenous in cells
T3 sequence (Q96SW2 whole entry): as above
Method: as §1

CRBN Cys205 = biological target: T4, CRBN Cys205 (Homo sapiens, UniProt Q96SW2); details: for inhibition at 500 µM: 500 micromolar; for inhibition at 500 µM / inhibition at 31.2 µM / inhibition at 125 µM: read-out: % inhibition of iodoacetamide probe labeling, Cys205
T4 construct: endogenous in cells
T4 sequence (Q96SW2 whole entry): as above
Method: as §1

CRBN Cys219 = biological target: T5, CRBN Cys219 (Homo sapiens, UniProt Q96SW2); details: for inhibition at 500 µM: 500 micromolar
T5 construct: endogenous in cells
T5 sequence (Q96SW2 whole entry): as above
Method: as §1

CRBN Cys234 = biological target: T6, CRBN Cys234 (Homo sapiens, UniProt Q96SW2); details: for inhibition at 500 µM: 500 micromolar; for inhibition at 500 µM / inhibition at 31.2 µM / inhibition at 125 µM: read-out: % inhibition of iodoacetamide probe labeling, Cys234
T6 construct: endogenous in cells
T6 sequence (Q96SW2 whole entry): as above
Method: as §1

CRBN Cys366 = biological target: T7, CRBN Cys366 (Homo sapiens, UniProt Q96SW2)
T7 construct: endogenous in cells
T7 sequence (Q96SW2 whole entry): as above
Method: as §1

[1] = 50 micromolar, cell lysate, 1 h
[2] = 500 micromolar, cell lysate, 1 h
[3] = cell lysate, 1 h, read-out: % inhibition of iodoacetamide probe labeling, Cys219
[4] = read-out: % inhibition of iodoacetamide probe labeling, Cys219
[5] = 500 micromolar, cell lysate, 1 h, read-out: % inhibition of iodoacetamide probe labeling, Cys318
[6] = 31.2 micromolar, cell lysate, 1 h
[7] = 2.0 micromolar, cell lysate, 1 h
[8] = 7.8 micromolar, cell lysate, 1 h
[9] = 125 micromolar, cell lysate, 1 h
[10] = 0.12 micromolar, cell lysate, 1 h

inhibition at 5 µM (CRBN Cys287; 5 micromolar, cell lysate, 1 h): 40%
inhibition at 50 µM (CRBN Cys287; [1]): 90%
inhibition at 500 µM (CRBN Cys287): 97%
inhibition at 5 µM (CRBN Cys318; 5 micromolar, cell lysate, 1 h): 43%
inhibition at 50 µM (CRBN Cys318; [1]): 86%
inhibition at 500 µM (CRBN Cys318; read-out: % inhibition of iodoacetamide probe labeling, Cys318, 500 micromolar, cell lysate, 1 h): 95%
Compound: COc1ccccc1-c1cc(C#N)cc(OC2CCN(C(=O)/C=C/CN(C)C)CC2)c1 [Al]

inhibition at 125 µM (CRBN Cys188; cell lysate, 1 h): 5%
inhibition at 500 µM (CRBN Cys188; [2]): 3%
inhibition at 500 µM (CRBN Cys205; cell lysate, 1 h): 15%
inhibition at 31.2 µM (CRBN Cys205): 7%
inhibition at 125 µM (CRBN Cys205): 21%
inhibition at 500 µM (CRBN Cys219; [3]): 40%
inhibition at 31.2 µM (CRBN Cys219; [4]): 19%
inhibition at 125 µM (CRBN Cys219; [4]): 8%
inhibition at 500 µM (CRBN Cys234; cell lysate, 1 h): 31%
inhibition at 31.2 µM (CRBN Cys234): 6%
inhibition at 125 µM (CRBN Cys234): 19%
inhibition at 7.8 µM (CRBN Cys287; cell lysate, 1 h): 12%
inhibition at 500 µM (CRBN Cys287; [2]): 96%
inhibition at 31.2 µM (CRBN Cys287): 51%
inhibition at 125 µM (CRBN Cys287): 80%
inhibition at 7.8 µM (CRBN Cys318; cell lysate, 1 h): 21%
inhibition at 500 µM (CRBN Cys318; [5]): 85%
inhibition at 31.2 µM (CRBN Cys318; read-out: % inhibition of iodoacetamide probe labeling, Cys318, 31.2 micromolar, cell lysate, 1 h): 35%
inhibition at 125 µM (CRBN Cys318; read-out: % inhibition of iodoacetamide probe labeling, Cys318, 125 micromolar, cell lysate, 1 h): 64%
inhibition at 125 µM (CRBN Cys366; read-out: % inhibition of iodoacetamide probe labeling, Cys366): -6%
Compound: C=CC(=O)N1CC(Oc2ccc(Cl)cc2)C1 [Example A3]

inhibition at 7.8 µM (CRBN Cys287; cell lysate, 1 h): 96%
inhibition at 31.2 µM (CRBN Cys287; [6]): 97%
inhibition at 500 µM (CRBN Cys287; [2]): 99%
inhibition at 125 µM (CRBN Cys287): 99%
Compound: COc1ccccc1-c1cc(C#N)cc(OC2CCN(C(=O)/C(C#N)=C/C(C)(C)C)CC2)c1 [Example A4]

inhibition at 2 µM (CRBN Cys188; [7]): 22%
inhibition at 7.8 µM (CRBN Cys188; [8]): 13%
inhibition at 31.2 µM (CRBN Cys188; [6]): 13%
inhibition at 125 µM (CRBN Cys188; cell lysate, 1 h): 7%
inhibition at 0.49 µM (CRBN Cys188; read-out: % inhibition of iodoacetamide probe labeling, Cys188): 17%
inhibition at 2 µM (CRBN Cys205; [7]): 19%
inhibition at 7.8 µM (CRBN Cys205; [8]): 36%
inhibition at 31.2 µM (CRBN Cys205; [6]): 29%
inhibition at 125 µM (CRBN Cys205; [9]): 37%
inhibition at 500 µM (CRBN Cys205; cell lysate, 1 h): 31%
inhibition at 0.49 µM (CRBN Cys219; 0.49 micromolar, cell lysate, 1 h): 17%
inhibition at 7.8 µM (CRBN Cys219; [8]): 13%
inhibition at 125 µM (CRBN Cys219; 125 micromolar, cell lysate, 1 h, read-out: % inhibition of iodoacetamide probe labeling, Cys219): 25%
inhibition at 500 µM (CRBN Cys219; [3]): 13%
inhibition at 2 µM (CRBN Cys219; [4]): 22%
inhibition at 2 µM (CRBN Cys234; [7]): 19%
inhibition at 7.8 µM (CRBN Cys234; [8]): 35%
inhibition at 31.2 µM (CRBN Cys234; [6]): 37%
inhibition at 125 µM (CRBN Cys234; [9]): 60%
inhibition at 500 µM (CRBN Cys234; cell lysate, 1 h): 25%
inhibition at 0.12 µM (CRBN Cys287; [10]): 70%
inhibition at 2 µM (CRBN Cys287; [7]): 93%
inhibition at 7.8 µM (CRBN Cys287; cell lysate, 1 h): 96%
inhibition at 31.2 µM (CRBN Cys287; [6]): 98%
inhibition at 125 µM (CRBN Cys287; [9]): 99%
inhibition at 500 µM (CRBN Cys287; [2]): 99%
inhibition at 0.49 µM (CRBN Cys287): 83%
inhibition at 0.12 µM (CRBN Cys318; [10]): 77%
inhibition at 2 µM (CRBN Cys318; [7]): 85%
inhibition at 7.8 µM (CRBN Cys318; cell lysate, 1 h): 93%
inhibition at 31.2 µM (CRBN Cys318; 31.2 micromolar, cell lysate, 1 h, read-out: % inhibition of iodoacetamide probe labeling, Cys318): 94%
inhibition at 125 µM (CRBN Cys318; 125 micromolar, cell lysate, 1 h, read-out: % inhibition of iodoacetamide probe labeling, Cys318): 95%
inhibition at 500 µM (CRBN Cys318; [5]): 96%
inhibition at 0.49 µM (CRBN Cys318; read-out: % inhibition of iodoacetamide probe labeling, Cys318, 0.49 micromolar, cell lysate, 1 h): 76%
inhibition at 7.8 µM (CRBN Cys366; [8]): -22%
Compound: COc1ccccc1-c1cc(OC2CCN(C(=O)/C(C#N)=C/C(C)C)CC2)cc(C(N)=O)c1 [Example A5]

inhibition at 31.2 µM (CRBN Cys287; [6]): 82%
inhibition at 125 µM (CRBN Cys287; [9]): 94%
inhibition at 500 µM (CRBN Cys287; [2]): 95%
inhibition at 0.49 µM (CRBN Cys287): 62%
inhibition at 2 µM (CRBN Cys287): 77%
Compound: CC(/C=C(\C#N)C(=O)N1CCC(Oc2cccc(C#N)c2)CC1)c1ccccc1 (stereo not shown) [Example A6]
